The values that follow come from patent publication US6620808B2, “Endocrine modulation with positive modulators of AMPA type glutamate receptors” (The Regents of the University of California, priority 1997, dated 2003).

The subject of this test is Sections of the hypothalamus containing the arcuate nucleus. Nature of the test: release of GHRH from hypothalamic explants in static culture. In kind it is cell-based, rats. The settings on record: GR87 at 100 μm. The text has this: The arcuate nucleus of the hypothalamus contains the majority of cells that synthesize GHRH and secrete the releasing factor into the anterior pituitary. Sections of the hypothalamus containing the arcuate nucleus were explanted from postnatal day 10-12 rats and maintained in static culture. Once established, these cultures were used to test the prediction that positive, allosteric modulators of AMPA type glutamate receptors will increase the release of GHRH from the hypothalamus into the culture medium. Explants were exposed to GR87 at 100 μm for four hours on some days and to vehicle for the same period on other days. Concentrates of the media were prepared following the exposure periods of GHRH assayed using a commercially available kit. Using a within culture design, i.e. drug vs. vehicle in the same tissue well, provided a control for differences in tissue thickness and the extent to which the arcuate was contained within the explants. As shown, the amount of GHRH in the media was about threefold greater after four hours of treatment with ampakine than it was after an equivalent period of vehicle application. This effect was in the predicted direction and was statistically significant (p=0.011).
A single experiment was conducted to test if prolonged administration of GR87 at 100 μm would affect GHRH secretion. […]

In the case of `O=C(c1ccc2c(c1)OCCO2)N1CCCCC1` [GR87], the “media level of GHRH” value (24 hours, group of 12 explants (controls 18 ng/400 μl)) is 47 ng/400 μl. Besides, the “amount of GHRH in the media relative to vehicle application” value (four hours, within-culture drug vs vehicle, p=0.011) was “about threefold”.
